Here are results for 4 compounds from US20040002521A1, “Cyclopropanecarboxylic acid amide compound and pharmaceutical use thereof” (AJINOMOTO CO. INC, priority 2000, published 2004).

Structures are written as SMILES. In brackets after ≈: the same amount, converted by molar mass.

The term IC50 denotes the concentration at which inhibition is half-maximal.

The test system of this experiment is NF-kappa B. Put plainly: Evaluation of NF-kappa B inhibition (β-gal reporter driven by 6 NF-kappa B binding sequences in immortalized HUVEC, IL-1β induced). The experiment is classed as cell-based. The settings on record: Homo sapiens; HUVEC reporter cells; compound added 30 minutes before IL-1β; β-gal activity determined after 16 hours; read-out: NF-kappa B Inhibitory Activity: IC50. An excerpt: Evaluation of NF-kappa B Inhibition
In this evaluation, there were used cells obtained by stably introducing β-galactosidase (β-gal) gene of Escherichia coli, which was driven by an SV40 minimum promoter produced by fusing 6 NF-kappa B binding sequences derived from the kappa light chain enhancer of immunoglobulin arranged in a tandem to human normal umbilical venous endothelial cells (HUVEC) immortalized with an SV40 large-sized T-antigen. These cells were subjected to the subculture in an RPMI culture medium supplemented with 10% FBS (fetal bovine serum) and the cells were inoculated in wells of a 96-well plate in a concentration of 1×10^4 cells/well on the day before the initiation of the experiments. Each candidate compound of the present invention was dissolved in DMSO in an adequate concentration and then added to each well of the 96-well plate in such a manner that the final concentration of DMSO was adjusted to a level of not more than 1%. After 30 minutes from the addition of the compound, a […] IL-1β was added to each well to a final concentration of 50 ng/ml to thus induce the NF-kappa B activity and the β-gal activity was determined after 16 hours therefrom. The β-gal activity was determined using a chemiluminescent substrate (Galacton-Light-Plus available from Boehringer Manheim Company), which was used according to the protocols annexed to the reagent, and Luminescencer (available from ATO Company).
Consider `CC1(C)CC1C(=O)Nc1ccc(Cc2ccccc2)cc1` (stereo not shown) [Example 1, 2,2-Dimethyl-cyclopropanecarboxylic acid (4-benzylphenyl)-amide], for which the IC50 worked out at 3 µg/mL (≈ 10.7 µM).

Take `Cc1ccc(NC(=O)C2CC2(C)C)cc1` (stereo not shown) [Example 2, 2,2-Dimethyl-cyclopropanecarboxylic acid p-tolylamide]: the concentration for half-maximal inhibition (IC50) was 3 µg/mL (≈ 14.8 µM).

Consider `CC1(C)CC1C(=O)Nc1ccc(Oc2ccc(Cl)cc2)cc1` (stereo not shown) [Example 9, 2,2-Dimethyl-cyclopropanecarboxylic acid [4-(4-chlorophenoxy)-phenyl]-amide], for which the 50% inhibitory concentration (IC50) came to 5 µg/mL (≈ 15.8 µM).

For `CC1(C)CC1C(=O)Nc1ccc(Nc2ccccc2)cc1` (stereo not shown) [Example 12, 2,2-Dimethyl-cyclopropanecarboxylic acid (4-phenylamino-phenyl)-amide], the IC50 is 2 µg/mL (≈ 7.13 µM).
